This assay has as its system Gram-positive alkaliphilic bacteria. As to the kind of experiment: Antibiotic sensitivity, susceptibility test discs (characters 84-105). It counts as cell-based.

Regarding `NC[C@@H]1O[C@H](O[C@H]2[C@@H](O)[C@H](O[C@@H]3[C@@H](O)[C@H](N)C[C@H](N)[C@H]3O[C@H]3O[C@H](CN)[C@@H](O)[C@H](O)[C@H]3N)O[C@@H]2CO)[C@H](N)[C@@H](O)[C@@H]1O` [Neomycin], the “Percentage Positive States, antibiotic sensitivity” value (“Percentage Positive States” for short) by setting is: (CLUSTER 1) 0%; (CLUSTER 2) 0%; (CLUSTER 3) 0%; (CLUSTER 4) 50%; (CLUSTER 5) 17%; (CLUSTER 6) 0%.

Gentamycin: the “Percentage Positive States” value runs as follows: (CLUSTER 1) 60%; (CLUSTER 2) 0%; (CLUSTER 3) 50%; (CLUSTER 4) 50%; (CLUSTER 5) 50%; (CLUSTER 6) 25%.

Consider Tetracyclin, for which the “Percentage Positive States” value is, setting by setting: (CLUSTER 1) 80%; (CLUSTER 2) 60%; (CLUSTER 3) 0%; (CLUSTER 4) 100%; (CLUSTER 5) 100%; (CLUSTER 6) 25%.

As to Polymixin, the “Percentage Positive States” value (CLUSTER 1) was found to be 40%; the “Percentage Positive States” value (CLUSTER 2) is 20%; the “Percentage Positive States” value (CLUSTER 3) turned out to be 0%; the “Percentage Positive States” value (CLUSTER 4) was 0%; the “Percentage Positive States” value (CLUSTER 5) is 0%; the “Percentage Positive States” value (CLUSTER 6) is on record as 0%.

For the origin of these results see patent publication EP0523769B1, “Gram-positive alkaliphilic microorganisms” (GENENCOR INTERNATIONAL, INC., priority 1991, dated 1993).
